Experimental data: ChEMBL document CHEMBL3507680, “University of Dundee, Gates Library screen for HepG2 cell viability”

Experiment: Human HepG2 cell viability assay in 384 well format
Type: toxicity, cell-based
Design: dose 125 nL, time 70.5 hour; cytotoxicity at 70.5 h: concentration not given beside the values
Settings: HepG2 cells, read-out: Inhibition

SMILES | cytotoxicity at 70.5 h [%]
c1cnc(N2C[C@@H]3CC[C@H](C2)N(Cc2ccsc2)C3)nc1 | -9.26
Cc1ccc(N2C[C@@H]3CN(C(=O)NC4CCCC4)C[C@]3(C(=O)O)C2)nn1 | 2.02
C=C1C(C)(C)[C@H]2CC[C@]1(C(=O)N1CCC(n3cc(CCO)nn3)CC1)C2 | -10.3
COc1ccccc1S(=O)(=O)N1CCC2(CC1)[C@H](O)C[C@@H]2O | -10.2
O=C(c1ccc2c(c1)[nH]c(=O)n2[C@H]1CC[C@H](O)CC1)N1CCOCC1 | -12.1
CN(Cc1cnc(N)nc1)C(=O)c1coc(COc2cccc(F)c2)n1 | 0.199
Cc1n[nH]c(C)c1CCc1n[nH]c(=O)n1Cc1cccs1 | -0.375
Cc1cc(C)n(CC(C)Nc2nc(-c3ccncc3)nc3c2CNC3)n1 (stereo not given) | 17.3
CCN1CCN(C[C@@H]2CN(c3ncc(Cl)cc3F)C[C@@H]2CO)CC1 | -10.9
CSCC[C@H](N)C(=O)NCc1cc2n(n1)CCCN(C(=O)N(C)C)C2 | -8.91
NC1CCCCN(Cc2cc(C3CCCCC3)no2)C1 (stereo not given) | -7.91
Cc1ccc(NC(=O)CN[C@H](C(N)=O)C(C)C)cc1F | 13.9
Cc1cc(C)cc(CN2CCN(Cc3cc(C#N)n(C)c3)CC2=O)c1 | -6.92
CS(=O)(=O)c1ccc(-c2cc(C3CC3)c(C#N)c(N)n2)cc1 | 0.0408
CC(C)=CCN1CCN(Cc2cc(C)c(O)c(C)c2)CC1CCO (stereo not given) | 9.39
O=C1CCC2(CCN(Cc3nccs3)CC2)CN1CCCO | -6.67
COc1ccc(C(=O)N2CCC3(CC2)c2ccccc2[C@@H](N)[C@@H]3O)cc1 | 0.101
Cc1nnsc1C(=O)N1CCN(C(=O)C2CCC2)[C@@H]2CS(=O)(=O)C[C@@H]21 | -10.8
O=c1cc(N2CCCC2)cnn1CC(F)F | -6.13
Cn1ccnc1-c1cn(CCCc2nnc(N)s2)nn1 | -19.9
CCC1CN(C(=O)c2cc(C(C)=O)c(C)[nH]c2=O)CCN1C(C)C (stereo not given) | -9.37
O=C(NCCO)c1coc(CN2CCN(c3ccccc3F)CC2)n1 | -5.22

SMILES | cytotoxicity at 70.5 h [%]
COCCN1C(=O)[C@H]2CC[C@@H]1CN(Cc1nnc(C3CC3)o1)C2 | 19.1
CCCc1ccc2oc(C(=O)N3CCCN(C)CC3)c(C)c2c1 | -2.52
CCc1ncc2c(n1)CN(C(=O)c1c(C)[nH]c(C(C)=O)c1C)C2 | -9.15
CCN1CCCC(C)(C(=O)NCc2nnnn2-c2ccccc2)C1 (stereo not given) | -5.49
COc1ccc2c(c1)C(C(=O)N(C)CCc1scnc1C)CC(=O)N2 (stereo not given) | -5.27
CCCn1cc(C(=O)NCCC(=O)NC2CCCCC2)c(C)n1 | -4.38
Cc1cc(C)c2nc(CN3CCC(C#N)CC3)cc(O)c2c1 | -1.43
CN(C)S(=O)(=O)N1C[C@@H]2CC[C@H](C1)N(Cc1cccc(C#N)c1)C2 | -8.84
CN(Cc1ccoc1)C(=O)Cn1ncc(N(C)C)cc1=O | 9.67
Cc1nn(CC(=O)NCCc2ccncc2)c(=O)n1Cc1ccccc1 | 1.25
CN(Cc1nc(CC2CC2)no1)CC1COc2ccccc2O1 (stereo not given) | -3.03
CC(C)n1ccnc1CN1C(=O)OC[C@@H]1c1ccccc1 | -2.47
FC(F)(F)C1CN(Cc2cnc3c(-c4ccccc4)cnn3c2)CCO1 (stereo not given) | -7.58
CN(C)c1nc2c(c(N3CCCC3)n1)CCN(C(=O)c1ccc[nH]1)CC2 | 25.5
CCn1ccnc1CN(C)Cc1nc(Cc2cccc(F)c2)no1 | 11.1
CCCNC(=O)N1CCCC2(CCC(=O)N(CCc3c[nH]cn3)C2)C1 (stereo not given) | -1.2
CCC(CO)N(Cc1ccco1)C(=O)c1ccccc1SC (stereo not given) | 10.8
Cc1nc2c(c(N3CCCOCC3)n1)CCN(C(=O)N1CCCC1)CC2 | -4.22
CC(=O)c1ccc(CN2CC(Oc3ccccc3C)C2)cc1 | -1.63
CNC(=O)c1cc(NC(=O)NCC2CCS(=O)(=O)C2)ccc1OC (stereo not given) | 19.9
Cn1ncc2c(N3CC(N4CCCCC4)C3)nc(C3CCCC3)nc21 | -4.55
COCCC(=O)N1CCC2(CCCN(Cc3cc(OC)ccc3F)C2)C1 (stereo not given) | -6.14

SMILES | cytotoxicity at 70.5 h [%]
O=C(c1ccc(S(=O)(=O)NCc2ccncc2)cc1)N1CCNCC1 | -6.98
CC(C)(O)C1CCCN(C(=O)Nc2nc(-c3ccccc3)ns2)C1 (stereo not given) | -3.5
CC1=NC2(CCN(CC(C)c3ccccc3)CC2)C(=O)N1 (stereo not given) | -8.98
CC(=O)c1ccc(-c2cnn(CC(=O)Nc3cc(C)nn3C)c2)nc1 | -13
CCCc1nc(N2CCCC(CCOC)C2)c2cnn(C)c2n1 (stereo not given) | 15.9
CNC(=O)[C@@H]1C[C@@H](N)CN1Cc1cc2cc(C)cc(C)c2[nH]c1=O | -12
C[C@@H]1CN(C(=O)CCc2cnn(C)c2)C[C@@]1(O)C1CCC1 | -5.7
CC(C)c1cc(N2CCC(N(C)C)C2)n2nccc2n1 (stereo not given) | -8.85
CCC(CO)N(Cc1cccnc1)C(=O)c1ccncc1F (stereo not given) | -9.31
COc1ccc(CN2CC(=O)N(c3ccc(C)cc3)CC2C)cc1O (stereo not given) | -2.16
Cc1ccc(-c2cc(C(=O)NCCCc3csc(N)n3)[nH]n2)s1 | -3.12
CS(=O)(=O)NC1CCN(C(=O)c2cnc(-c3cccnc3)nc2)CC1 | -7.35
COc1cccc(-c2cc(NCCN(C)C)nc3[nH]ccc23)n1 | -6.53
CSCC(=O)N1CCc2c(cnc(C)c2-c2noc(-c3ccco3)n2)C1 | -17
O=C(c1ccc(=O)[nH]c1)N1CCCC1c1nc2cc(F)ccc2[nH]1 (stereo not given) | -3.97
O=C(c1coc2ccccc12)N1CCCC(O)(CO)CC1 (stereo not given) | -7.66
COc1c(C)cnc(CN(C)C(=O)c2ccc(C3CCCO3)s2)c1C (stereo not given) | -6.12
Cn1ccnc1SCCNc1cc(N2CCOCC2)ncn1 | -19.6
Cc1cccc(N2CCC(N3CCC4(CCCNC4=O)C3)CC2)c1C (stereo not given) | 10.3
COCCC(=O)N1CCC2(CC1)CC(c1ccccc1)CN(C1CC1)C2 (stereo not given) | 0.742
Cc1noc(C)c1CN1CCn2nc(CCC(=O)N3CCCC3)cc2C1 | -2.3
Cc1cc(N2CCCC3(CN(C)C(=O)O3)C2)c2cc3c(cc2n1)OCO3 (stereo not given) | 19.1

SMILES | cytotoxicity at 70.5 h [%]
CCCn1c(C)c(CC(=O)NCCOC)c2c1CC(C)(C)CC2=O | -0.0334
CCC(CO)N(Cc1cccs1)C(=O)CNS(=O)(=O)c1cccs1 (stereo not given) | -4.61
CCN1CC(C(=O)N2CCN(CCn3cccc3)CC2)CC1=O (stereo not given) | 18.1
CC[C@H]1CN(C(=O)c2cccc(-n3cnnc3)n2)CC[C@@]1(C)O | 19.7
Cc1nc(NCC(O)CN2CCCCCC2)c2c(C)noc2n1 (stereo not given) | -5.74
O=C(CCn1cc(Cl)cn1)N1CCCC(O)(CO)CC1 (stereo not given) | -4.26
Cc1cnc(C(=O)N2CCNCC2C(=O)NCc2ccncc2)cn1 (stereo not given) | 3.98
Cc1ccccc1OCCC(=O)N1CCc2nc(C)n(C)c(=O)c2CC1 | -8.53
COc1ccc(Cc2ncc3c(n2)CN(C(=O)CN(C)C)C3)cc1 | -8
Cc1cccc(C(C)C)c1NC(=O)CN(C)C(C)c1nccs1 (stereo not given) | -9.73
CN(C)C(=O)Cc1ccc(-c2cccc3c2CCNC3)cc1 | -21.8
CCCNc1ncc(CN2CCOC(Cc3cccc(F)c3)C2)cn1 (stereo not given) | -10.7
NC(=O)CN1CC2(CCC1=O)CCN(Cc1cc(F)cc(F)c1)CC2 | -0.945
CCN(Cc1cccc(C(=O)Nc2ncc(C)s2)c1)[C@H]1COC[C@@H]1O | -3.78
CCCn1ncc(C2CC(=O)NCc3nc4cc(C)ccn4c32)c1C (stereo not given) | 2.43
CCc1nn(C)c(Cl)c1CN1CCCC2(C1)CN(C)C(=O)O2 (stereo not given) | -11.8
O=C(COc1cccc(F)c1)N1C[C@H](CO)C[C@H](CN2CCCC2)C1 | 6.4
Cc1cc(C)n(CCCN(C)C(=O)CN2CC3(CCNCC3)OC2=O)n1 | -8.19
Cc1ccsc1CN(Cc1ccccn1)CC(O)CO (stereo not given) | -1.67
COc1cnc(N2CCC(c3ncc[nH]3)CC2)nc1 | 17.8
O=C(Nc1ccccc1)N1CCC(N2Cc3ncccc3C2=O)CC1 | -8.29
CCc1ccccc1C(=O)N1C[C@@H](CN2CCOCC2)[C@@H](CO)C1 | 27.9

SMILES | cytotoxicity at 70.5 h [%]
Cn1ncc(N2CCC(CNC3CC(C)(C)CC(C)(C)C3)C2)cc1=O (stereo not given) | 7.5
CN(CCCc1cnn(C)c1)Cc1cc2n(n1)CCCNC2 | -14.1
CC(C)C1CN(Cc2c[nH]cn2)CCCN1CC1CC1 (stereo not given) | -17.8
OCC(O)CN(CCN1CCOCC1)Cc1ccco1 (stereo not given) | -8.67
Cc1nnc(N2CCN(C)C3(CCC(=O)N(CCO)CC3)C2)s1 (stereo not given) | 22.1
Fc1ccccc1CN1CCCC2(CCN(c3ncccn3)C2)C1 (stereo not given) | -9.02
OCC1COCCN(Cc2cc(C3CCCCC3)no2)C1 (stereo not given) | -9.08
Cc1ccc2nc(C(=O)N3CC(n4nc(C)cc4C)C3)cn2c1 | -9.46
Cc1nc(N2CCC(O)(c3ccccc3)CC2)c2c(C)nn(C)c2n1 | -3.33
CC(C)NC1CCCc2nc(-c3ccccc3)ncc21 (stereo not given) | -14.3
O=C1NCCN(CC2CCCCC2)C1CC(=O)N1CCc2n[nH]cc2C1 (stereo not given) | -1.96
COc1ccc(C(=O)N2C[C@@H](O)[C@H](NCc3cnc(C)cn3)C2)cc1 | 22.1
CCn1c(C)nnc1SCCNC(=O)c1cnc(N(C)C)nc1C | -2.09
COc1cccc(CCC2CCCN(C(=O)c3ccc(OC)o3)C2)c1 (stereo not given) | -3.25
COc1ccccc1OC1(C(=O)O)CCN(c2nc(C)cnc2C)CC1 | -6.64
CN(Cc1cc(C2CC2)[nH]n1)C(=O)c1ccccc1C1CCNC1 (stereo not given) | -3.91
NCC1Cc2cc(-c3cnccn3)cc(Cl)c2O1 (stereo not given) | 0.342
CCCN1CCCC2(CCN(S(=O)(=O)c3cc(C)nn3CC)C2)C1=O (stereo not given) | -21.6
COCC1CCN(C(=O)c2cn(Cc3ccccc3F)nn2)CC1 | 5.43
CCCN1CCCn2nc(CNC(=O)CC3CCS(=O)(=O)C3)cc2C1 (stereo not given) | -3.24
Cc1cc2nc(-c3ccccc3)cc(NCC3CCCOC3)n2n1 (stereo not given) | 0.476
CN(C)C(=O)NCC(=O)N(C)Cc1cc(-c2ccccc2)no1 | 22
